In BindingDB's records for doi:10.1007/s00213-009-1521-8 (Case Western Reserve University, 2009):

Tests used:
[1] = target: Beta-3 adrenergic receptor (Homo sapiens, UniProt P13945)
[2] = target: 5-hydroxytryptamine receptor 1A (Homo sapiens, UniProt P08908)
[3] = target: 5-hydroxytryptamine receptor 6 (Homo sapiens, UniProt P50406)
[4] = target: 5-hydroxytryptamine receptor 1B (Homo sapiens, UniProt P28222)
[5] = target: Delta-type opioid receptor (Homo sapiens, UniProt P41143)
[6] = target: 5-hydroxytryptamine receptor 1E (Homo sapiens, UniProt P28566)
[7] = target: Prostaglandin E2 receptor EP4 subtype (Homo sapiens, UniProt P35408)
[8] = target: 5-hydroxytryptamine receptor 3A (Homo sapiens, UniProt P46098)
[9] = target: 5-hydroxytryptamine receptor 5A (Homo sapiens, UniProt P47898)
[10] = target: Prostaglandin E2 receptor EP3 subtype (Homo sapiens, UniProt P43115)
Mu-type opioid receptor = Mu-type opioid receptor (Homo sapiens, UniProt P35372)
[11] = target: Sigma non-opioid intracellular receptor 1 (Rattus norvegicus, UniProt Q9R0C9)
[12] = target: Gamma-aminobutyric acid receptor subunit alpha-1 (Rattus norvegicus, UniProt P62813)
[13] = target: Alpha-1A adrenergic receptor (Homo sapiens, UniProt P35348)
Histamine H4 receptor = Histamine H4 receptor (Homo sapiens, UniProt Q9H3N8)
[14] = target: Muscarinic acetylcholine receptor M1 (Homo sapiens, UniProt P11229)
[15] = target: Muscarinic acetylcholine receptor M4 (Homo sapiens, UniProt P08173)
Histamine H2 receptor = Histamine H2 receptor (Homo sapiens, UniProt P25021)
D(1A) dopamine receptor = D(1A) dopamine receptor (Homo sapiens, UniProt P21728)
[16] = target: Alpha-2A adrenergic receptor (Homo sapiens, UniProt P08913)
[17] = target: Alpha-1D adrenergic receptor (Homo sapiens, UniProt P25100)
D(4) dopamine receptor = D(4) dopamine receptor (Homo sapiens, UniProt P21917)
[18] = target: Beta-1 adrenergic receptor (Homo sapiens, UniProt P08588)
Histamine H1 receptor = Histamine H1 receptor (Homo sapiens, UniProt P35367)
[19] = target: Sodium-dependent noradrenaline transporter (Homo sapiens, UniProt P23975)
[20] = target: Beta-2 adrenergic receptor (Homo sapiens, UniProt P07550)
[21] = target: Kappa-type opioid receptor (Homo sapiens, UniProt P41145)
[22] = target: 5-hydroxytryptamine receptor 1D (Homo sapiens, UniProt P28221)
[23] = target: 5-hydroxytryptamine receptor 2C (Homo sapiens, UniProt P28335)
[24] = target: Alpha-2C adrenergic receptor (Homo sapiens, UniProt P18825)
[25] = target: Muscarinic acetylcholine receptor M3 (Homo sapiens, UniProt P20309)
[26] = target: Alpha-1B adrenergic receptor (Homo sapiens, UniProt P35368)
D(1B) dopamine receptor = D(1B) dopamine receptor (Homo sapiens, UniProt P21918)
[27] = target: Muscarinic acetylcholine receptor M5 (Homo sapiens, UniProt P08912)
[28] = target: Muscarinic acetylcholine receptor M2 (Homo sapiens, UniProt P08172)

5-hydroxytryptamine receptor 2C, sequence (P28335 whole entry): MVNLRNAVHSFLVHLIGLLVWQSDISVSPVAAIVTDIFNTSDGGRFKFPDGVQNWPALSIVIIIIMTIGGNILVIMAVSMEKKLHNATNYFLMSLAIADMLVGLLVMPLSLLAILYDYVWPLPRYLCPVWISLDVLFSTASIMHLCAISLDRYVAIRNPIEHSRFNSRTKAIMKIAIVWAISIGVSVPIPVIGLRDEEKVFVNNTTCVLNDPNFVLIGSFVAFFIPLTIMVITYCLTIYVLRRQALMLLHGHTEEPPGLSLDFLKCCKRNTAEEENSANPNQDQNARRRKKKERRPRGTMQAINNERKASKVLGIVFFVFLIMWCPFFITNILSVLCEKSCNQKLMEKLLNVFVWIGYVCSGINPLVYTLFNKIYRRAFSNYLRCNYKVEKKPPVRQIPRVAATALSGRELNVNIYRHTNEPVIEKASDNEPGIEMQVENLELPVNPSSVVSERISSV
Sodium-dependent noradrenaline transporter, sequence (P23975 whole entry): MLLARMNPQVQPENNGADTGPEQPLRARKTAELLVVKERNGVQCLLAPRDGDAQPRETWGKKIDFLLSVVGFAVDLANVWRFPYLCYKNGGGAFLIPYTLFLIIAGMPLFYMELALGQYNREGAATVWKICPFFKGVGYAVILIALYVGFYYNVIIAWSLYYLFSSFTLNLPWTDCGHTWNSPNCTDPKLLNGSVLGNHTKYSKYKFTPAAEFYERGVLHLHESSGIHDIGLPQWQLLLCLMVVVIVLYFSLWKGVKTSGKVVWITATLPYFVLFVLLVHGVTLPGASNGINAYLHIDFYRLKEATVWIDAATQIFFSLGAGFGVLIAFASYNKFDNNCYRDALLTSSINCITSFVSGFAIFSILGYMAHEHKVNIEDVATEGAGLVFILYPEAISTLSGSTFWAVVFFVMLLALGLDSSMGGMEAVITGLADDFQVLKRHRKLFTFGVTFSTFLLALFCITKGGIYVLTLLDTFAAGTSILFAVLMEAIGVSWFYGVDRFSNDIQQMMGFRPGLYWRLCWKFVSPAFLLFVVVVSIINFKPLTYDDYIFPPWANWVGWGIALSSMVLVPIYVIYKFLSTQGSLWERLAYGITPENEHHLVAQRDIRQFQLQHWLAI
Kappa-type opioid receptor, sequence (P41145 whole entry): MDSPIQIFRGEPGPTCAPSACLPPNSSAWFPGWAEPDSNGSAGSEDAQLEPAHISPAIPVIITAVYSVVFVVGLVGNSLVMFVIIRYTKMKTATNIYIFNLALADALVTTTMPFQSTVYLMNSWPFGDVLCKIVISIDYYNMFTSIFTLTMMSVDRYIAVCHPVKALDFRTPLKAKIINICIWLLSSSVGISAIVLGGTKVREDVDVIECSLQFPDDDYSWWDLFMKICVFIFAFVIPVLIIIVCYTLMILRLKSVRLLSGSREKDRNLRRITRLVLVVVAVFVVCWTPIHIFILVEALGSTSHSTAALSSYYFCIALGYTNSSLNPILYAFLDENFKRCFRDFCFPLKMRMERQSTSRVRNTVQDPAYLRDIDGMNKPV
Histamine H4 receptor, sequence (Q9H3N8 whole entry): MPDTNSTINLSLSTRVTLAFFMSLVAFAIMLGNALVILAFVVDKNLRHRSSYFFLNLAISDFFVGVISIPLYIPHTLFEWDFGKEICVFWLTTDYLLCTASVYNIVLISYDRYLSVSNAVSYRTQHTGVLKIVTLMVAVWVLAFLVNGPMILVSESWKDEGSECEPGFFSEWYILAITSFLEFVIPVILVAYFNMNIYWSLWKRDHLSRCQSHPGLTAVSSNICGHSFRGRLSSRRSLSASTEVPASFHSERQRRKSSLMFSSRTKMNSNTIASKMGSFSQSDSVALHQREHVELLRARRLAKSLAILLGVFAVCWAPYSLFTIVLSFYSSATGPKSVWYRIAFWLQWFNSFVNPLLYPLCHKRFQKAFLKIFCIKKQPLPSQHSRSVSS
Muscarinic acetylcholine receptor M1, sequence (P11229 whole entry): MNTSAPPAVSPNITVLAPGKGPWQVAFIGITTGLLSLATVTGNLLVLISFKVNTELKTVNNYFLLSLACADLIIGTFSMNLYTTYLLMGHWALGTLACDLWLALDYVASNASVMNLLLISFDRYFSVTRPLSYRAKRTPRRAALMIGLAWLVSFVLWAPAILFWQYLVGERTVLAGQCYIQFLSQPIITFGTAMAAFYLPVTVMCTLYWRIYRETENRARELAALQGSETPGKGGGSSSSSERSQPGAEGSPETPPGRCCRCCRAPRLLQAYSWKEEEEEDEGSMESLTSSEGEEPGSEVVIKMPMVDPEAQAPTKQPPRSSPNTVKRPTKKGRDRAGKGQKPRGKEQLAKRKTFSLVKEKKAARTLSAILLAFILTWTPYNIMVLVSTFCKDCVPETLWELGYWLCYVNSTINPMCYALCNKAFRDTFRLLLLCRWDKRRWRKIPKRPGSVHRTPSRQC
5-hydroxytryptamine receptor 6, sequence (P50406 whole entry): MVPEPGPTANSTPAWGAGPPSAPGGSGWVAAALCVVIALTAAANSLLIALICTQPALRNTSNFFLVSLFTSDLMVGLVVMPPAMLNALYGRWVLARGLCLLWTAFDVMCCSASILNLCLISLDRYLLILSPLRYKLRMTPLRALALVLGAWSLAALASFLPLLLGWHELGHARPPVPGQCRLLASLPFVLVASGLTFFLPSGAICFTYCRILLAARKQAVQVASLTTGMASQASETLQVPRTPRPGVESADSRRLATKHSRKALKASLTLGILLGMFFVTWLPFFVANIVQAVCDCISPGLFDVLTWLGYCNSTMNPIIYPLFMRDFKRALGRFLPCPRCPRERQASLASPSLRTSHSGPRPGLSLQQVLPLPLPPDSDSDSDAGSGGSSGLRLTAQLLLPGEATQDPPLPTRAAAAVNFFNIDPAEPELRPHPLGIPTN
Histamine H2 receptor, sequence (P25021 whole entry): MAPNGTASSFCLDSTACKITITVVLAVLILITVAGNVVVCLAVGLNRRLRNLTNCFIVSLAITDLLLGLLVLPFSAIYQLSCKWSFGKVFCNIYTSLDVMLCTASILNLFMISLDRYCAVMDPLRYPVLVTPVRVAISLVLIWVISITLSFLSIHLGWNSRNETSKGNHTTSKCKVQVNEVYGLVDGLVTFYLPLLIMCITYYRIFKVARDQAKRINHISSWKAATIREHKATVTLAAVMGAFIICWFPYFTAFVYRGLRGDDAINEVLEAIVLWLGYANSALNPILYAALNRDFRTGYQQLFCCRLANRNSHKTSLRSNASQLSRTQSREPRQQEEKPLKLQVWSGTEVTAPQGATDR
Delta-type opioid receptor, sequence (P41143 whole entry): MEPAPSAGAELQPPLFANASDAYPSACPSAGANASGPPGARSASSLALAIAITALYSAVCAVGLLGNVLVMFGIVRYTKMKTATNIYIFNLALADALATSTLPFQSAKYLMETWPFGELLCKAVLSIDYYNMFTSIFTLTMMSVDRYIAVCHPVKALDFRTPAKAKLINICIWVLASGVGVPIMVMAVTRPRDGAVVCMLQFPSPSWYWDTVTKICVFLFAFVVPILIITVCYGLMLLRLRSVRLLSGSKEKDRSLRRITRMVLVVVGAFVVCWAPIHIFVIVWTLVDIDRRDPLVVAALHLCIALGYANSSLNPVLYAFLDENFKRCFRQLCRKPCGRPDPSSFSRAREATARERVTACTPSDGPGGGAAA
Beta-1 adrenergic receptor, sequence (P08588 whole entry): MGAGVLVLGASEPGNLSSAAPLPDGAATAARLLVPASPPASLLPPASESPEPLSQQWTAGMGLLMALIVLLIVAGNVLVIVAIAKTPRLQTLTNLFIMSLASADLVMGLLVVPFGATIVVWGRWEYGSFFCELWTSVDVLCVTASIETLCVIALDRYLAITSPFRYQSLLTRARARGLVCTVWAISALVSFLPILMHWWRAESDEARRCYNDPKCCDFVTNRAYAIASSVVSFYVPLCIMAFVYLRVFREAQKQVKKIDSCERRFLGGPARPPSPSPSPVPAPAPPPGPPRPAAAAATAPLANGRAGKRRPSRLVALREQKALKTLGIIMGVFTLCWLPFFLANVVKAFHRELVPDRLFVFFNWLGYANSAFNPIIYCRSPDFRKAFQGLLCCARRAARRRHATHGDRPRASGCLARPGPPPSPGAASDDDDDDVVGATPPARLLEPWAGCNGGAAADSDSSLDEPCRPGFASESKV
5-hydroxytryptamine receptor 3A, sequence (P46098 whole entry): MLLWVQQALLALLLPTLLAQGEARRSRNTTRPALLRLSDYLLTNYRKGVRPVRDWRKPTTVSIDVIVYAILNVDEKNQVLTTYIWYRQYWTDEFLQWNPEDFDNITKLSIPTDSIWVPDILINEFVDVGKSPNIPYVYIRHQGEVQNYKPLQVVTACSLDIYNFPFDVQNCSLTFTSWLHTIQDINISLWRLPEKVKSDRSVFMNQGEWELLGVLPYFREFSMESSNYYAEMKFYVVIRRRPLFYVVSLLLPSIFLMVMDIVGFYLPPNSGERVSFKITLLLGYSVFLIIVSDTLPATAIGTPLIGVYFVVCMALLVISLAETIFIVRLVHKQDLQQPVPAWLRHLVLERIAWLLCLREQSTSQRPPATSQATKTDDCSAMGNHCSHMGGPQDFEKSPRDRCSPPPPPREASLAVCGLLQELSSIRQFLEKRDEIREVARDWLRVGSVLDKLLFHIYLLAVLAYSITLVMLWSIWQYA
Mu-type opioid receptor, sequence (P35372 whole entry): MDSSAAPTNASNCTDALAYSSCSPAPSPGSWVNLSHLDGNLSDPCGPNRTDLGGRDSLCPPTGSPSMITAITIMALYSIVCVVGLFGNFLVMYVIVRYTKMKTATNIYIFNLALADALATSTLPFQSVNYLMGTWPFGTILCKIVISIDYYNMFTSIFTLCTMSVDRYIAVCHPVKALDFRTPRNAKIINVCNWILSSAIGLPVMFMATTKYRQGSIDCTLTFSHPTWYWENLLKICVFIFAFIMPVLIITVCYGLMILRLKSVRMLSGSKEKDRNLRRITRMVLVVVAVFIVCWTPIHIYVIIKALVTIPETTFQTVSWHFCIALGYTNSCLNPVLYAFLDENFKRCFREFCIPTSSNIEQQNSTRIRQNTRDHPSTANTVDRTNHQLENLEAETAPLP

## CCN1CCCC1CNC(=O)c1cc(S(=O)(=O)CC)c(N)cc1OC (stereo not given) [NSC_2159]
[1]
  Ki: > 10 µM
[2]
  Ki: > 10 µM
[3]
  Ki: 4.15 µM
[4]
  Ki: 1.74 µM
[5]
  Ki: > 10 µM
[6]
  Ki: > 10 µM
[7]
  Ki: > 10 µM
[8]
  Ki: > 10 µM
[9]
  Ki: > 10 µM
[10]
  Ki: > 10 µM
Mu-type opioid receptor
  Ki: > 10 µM
[11]
  Ki: > 10 µM
[12]
  Ki: > 10 µM
[13]
  Ki: > 10 µM
Histamine H4 receptor
  Ki: > 10 µM
[14]
  Ki: > 10 µM
[15]
  Ki: > 10 µM
Histamine H2 receptor
  Ki: > 10 µM
D(1A) dopamine receptor
  Ki: > 10 µM
[16]
  Ki: 1.11 µM
[17]
  Ki: > 10 µM
D(4) dopamine receptor
  Ki: 2.37 µM
[18]
  Ki: > 10 µM
Histamine H1 receptor
  Ki: > 10 µM
[19]
  Ki: > 10 µM
[20]
  Ki: > 10 µM
[21]
  Ki: > 10 µM
[22]
  Ki: 1.34 µM
[23]
  Ki: > 10 µM
[24]
  Ki: 1.54 µM
[25]
  Ki: > 10 µM
[26]
  Ki: > 10 µM
D(1B) dopamine receptor
  Ki: > 10 µM
[27]
  Ki: > 10 µM
[28]
  Ki: > 10 µM
